# According to patent US20230085307A1, “PYRIDAZINONE COMPOUND AND HERBICIDE” (NISSAN CHEMICAL CORPORATION, priority 2019, published 2023):
# Tests used:
# Chinese sprangletop = test: Test Example 3: herbicidal effect by foliage application, Wagner pot (Table 18, symbol D); type: in vivo, chinese sprangletop (Leptochloa chinensis); details: 320 g/ha
# Procedure, shortened: (§1)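 Plants were sown in alluvial soil held under 0.1–0.5 cm standing water and grown 14 days in a greenhouse at 25–30 °C. An emulsifiable formulation, water-diluted to the set dose, was then sprayed onto the foliage, and effects were scored three weeks later using previously defined criteria.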
# blackgrass [1] = test: Test Example 5: herbicidal effect by foliage application, plastic box (Table 20, symbol J); type: in vivo, blackgrass (Alopecurus myosuroides); details: amount of applied herbicide 320 g/ha; foliage application after 14-day growth; evaluated three weeks after application
# Procedure, shortened: (§2)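 Post-emergence foliar test in sterilized diluvial soil. Compound applied as water-diluted emulsion at a predetermined rate to 14-day-old plants; evaluation at three weeks.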
# wild oat [2] = test: Test Example 4: herbicidal effect by soil treatment (Table 19, symbol I); type: in vivo, wild oat (Avena fatua); details: amount of applied herbicide 320 g/ha
# Procedure, shortened: (§3)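 Emulsion of test compound, water-diluted to predetermined amount, sprayed on soil after sowing (seed depth ~1.5 cm, sterilized diluvial soil). Greenhouse, 25–30° C. Effect graded at three weeks post-spray.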
# green foxtail [3] = test: Test Example 4: herbicidal effect by soil treatment (Table 19, symbol G); type: in vivo, green foxtail (Setaria viridis); details: amount of applied herbicide 320 g/ha
# Procedure, shortened: as §3
# Italian ryegrass [4] = test: Test Example 4: herbicidal effect by soil treatment (Table 19, symbol K); type: in vivo, Italian ryegrass (Lolium multiflorum); details: amount of applied herbicide 320 g/ha
# Procedure, shortened: as §3
# velvetleaf [5] = test: Test Example 5: herbicidal effect by foliage application, plastic box (Table 20, symbol M); type: in vivo, velvetleaf (Abutilon theophrasti); details: amount of applied herbicide 320 g/ha; foliage application after 14-day growth; evaluated three weeks after application
# Procedure, shortened: as §2
# wild oat [6] = test: Test Example 5: herbicidal effect by foliage application, plastic box (Table 20, symbol I); type: in vivo, wild oat (Avena fatua); details: amount of applied herbicide 320 g/ha; foliage application after 14-day growth; evaluated three weeks after application
# Procedure, shortened: as §2
# Japanese bulrush = test: Test Example 1: herbicidal activity, application before weed generation under submerged conditions (Table 16, symbol B); type: in vivo, Japanese bulrush (Schoenoplectus juncoides); details: amount of applied herbicide 320 g/ha
# Procedure, shortened: (§4)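 Submerged Wagner pots (alluvial soil, 4 cm water) sown with weed seeds and planted with 2.5-leaf rice seedlings; emulsifiable concentrate diluted in water applied to water surface on sowing day. Held in greenhouse at 25-30 °C; injury scored 0-5 by herbicidal rate after three weeks.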
# lambsquarters [7] = test: Test Example 5: herbicidal effect by foliage application, plastic box (Table 20, symbol O); type: in vivo, lambsquarters (Chenopodium album); details: amount of applied herbicide 320 g/ha; foliage application after 14-day growth; evaluated three weeks after application
# Procedure, shortened: as §2
# barnyard grass [8] = test: Test Example 5: herbicidal effect by foliage application, plastic box (Table 20, symbol H); type: in vivo, barnyard grass (Echinochloa crus-galli); details: amount of applied herbicide 320 g/ha; foliage application after 14-day growth; evaluated three weeks after application
# Procedure, shortened: as §2
# late watergrass = test: Test Example 1: herbicidal activity, application before weed generation under submerged conditions (Table 16, symbol A); type: in vivo, late watergrass (Echinochloa oryzicola); details: amount of applied herbicide 320 g/ha
# Procedure, shortened: as §4
# redroot pigweed [9] = test: Test Example 4: herbicidal effect by soil treatment (Table 19, symbol N); type: in vivo, redroot pigweed (Amaranthus retroflexus); details: amount of applied herbicide 320 g/ha
# Procedure, shortened: as §3
# windgrass [10] = test: Test Example 4: herbicidal effect by soil treatment (Table 19, symbol L); type: in vivo, windgrass (Apera spica-venti); details: amount of applied herbicide 320 g/ha
# Procedure, shortened: as §3
# rice flat sedge = test: Test Example 3: herbicidal effect by foliage application, Wagner pot (Table 18, symbol E); type: in vivo, rice flat sedge (Cyperus iria); details: 320 g/ha
# Procedure, shortened: as §1
# velvetleaf [11] = test: Test Example 4: herbicidal effect by soil treatment (Table 19, symbol M); type: in vivo, velvetleaf (Abutilon theophrasti); details: amount of applied herbicide 320 g/ha
# Procedure, shortened: as §3
# green foxtail [12] = test: Test Example 5: herbicidal effect by foliage application, plastic box (Table 20, symbol G); type: in vivo, green foxtail (Setaria viridis); details: amount of applied herbicide 320 g/ha; foliage application after 14-day growth; evaluated three weeks after application
# Procedure, shortened: as §2
# oval-leafed pondweed = test: Test Example 1: herbicidal activity, application before weed generation under submerged conditions (Table 16, symbol C); type: in vivo, oval-leafed pondweed (Monochoria vaginalis); details: amount of applied herbicide 320 g/ha
# Procedure, shortened: as §4
# redroot pigweed [13] = test: Test Example 5: herbicidal effect by foliage application, plastic box (Table 20, symbol N); type: in vivo, redroot pigweed (Amaranthus retroflexus); details: amount of applied herbicide 320 g/ha; foliage application after 14-day growth; evaluated three weeks after application
# Procedure, shortened: as §2
# chickweed [14] = test: Test Example 4: herbicidal effect by soil treatment (Table 19, symbol P); type: in vivo, common chickweed (Stellaria media); details: amount of applied herbicide 320 g/ha
# Procedure, shortened: as §3
# Italian ryegrass [15] = test: Test Example 5: herbicidal effect by foliage application, plastic box (Table 20, symbol K); type: in vivo, Italian ryegrass (Lolium multiflorum); details: amount of applied herbicide 320 g/ha; foliage application after 14-day growth; evaluated three weeks after application
# Procedure, shortened: as §2
# blackgrass [16] = test: Test Example 4: herbicidal effect by soil treatment (Table 19, symbol J); type: in vivo, blackgrass (Alopecurus myosuroides); details: amount of applied herbicide 320 g/ha
# Procedure, shortened: as §3
# chickweed [17] = test: Test Example 5: herbicidal effect by foliage application, plastic box (Table 20, symbol P); type: in vivo, common chickweed (Stellaria media); details: amount of applied herbicide 320 g/ha; foliage application after 14-day growth; evaluated three weeks after application
# Procedure, shortened: as §2
# barnyard grass [18] = test: Test Example 4: herbicidal effect by soil treatment (Table 19, symbol H); type: in vivo, barnyard grass (Echinochloa crus-galli); details: amount of applied herbicide 320 g/ha
# Procedure, shortened: as §3
# false cleavers = test: Test Example 5: herbicidal effect by foliage application, plastic box (Table 20, symbol Q); type: in vivo, false cleavers (Galium spurium); details: amount of applied herbicide 320 g/ha; foliage application after 14-day growth; evaluated three weeks after application
# Procedure, shortened: as §2
# southern crabgrass [19] = test: Test Example 4: herbicidal effect by soil treatment (Table 19, symbol F); type: in vivo, southern crabgrass (Digitaria ciliaris); details: amount of applied herbicide 320 g/ha
# Procedure, shortened: as §3
# persian speedwell [20] = test: Test Example 5: herbicidal effect by foliage application, plastic box (Table 20, symbol R); type: in vivo, Persian speedwell (Veronica persica); details: amount of applied herbicide 320 g/ha; foliage application after 14-day growth; evaluated three weeks after application
# Procedure, shortened: as §2
# southern crabgrass [21] = test: Test Example 5: herbicidal effect by foliage application, plastic box (Table 20, symbol F); type: in vivo, southern crabgrass (Digitaria ciliaris); details: amount of applied herbicide 320 g/ha; foliage application after 14-day growth; evaluated three weeks after application
# Procedure, shortened: as §2
# windgrass [22] = test: Test Example 5: herbicidal effect by foliage application, plastic box (Table 20, symbol L); type: in vivo, windgrass (Apera spica-venti); details: amount of applied herbicide 320 g/ha; foliage application after 14-day growth; evaluated three weeks after application
# Procedure, shortened: as §2
# persian speedwell [23] = test: Test Example 4: herbicidal effect by soil treatment (Table 19, symbol R); type: in vivo, Persian speedwell (Veronica persica); details: amount of applied herbicide 320 g/ha
# Procedure, shortened: as §3
# lambsquarters [24] = test: Test Example 4: herbicidal effect by soil treatment (Table 19, symbol O); type: in vivo, lambsquarters (Chenopodium album); details: amount of applied herbicide 320 g/ha
# Procedure, shortened: as §3
# barnyard grass [25] = test: Test Example 3: herbicidal effect by foliage application, Wagner pot (Table 18, symbol H); type: in vivo, barnyard grass (Echinochloa crus-galli); details: 320 g/ha
# Procedure, shortened: as §1
Structure (SMILES),herbicidal effect on Chinese sprangletop (D) (Chinese sprangletop),"Herbicidal effect by foliage application, J: blackgrass (blackgrass [1])","I: wild oat, herbicidal effect grade (wild oat [2])","G: green foxtail, herbicidal effect grade (green foxtail [3])","K: Italian ryegrass, herbicidal effect grade (Italian ryegrass [4])","Herbicidal effect by foliage application, M: velvetleaf (velvetleaf [5])","Herbicidal effect by foliage application, I: wild oat (wild oat [6])","Herbicidal effect, B: Japanese bulrush (Japanese bulrush)","Herbicidal effect by foliage application, O: lambsquarters (lambsquarters [7])","Herbicidal effect by foliage application, H: barnyard grass (barnyard grass [8])","Herbicidal effect, A: late watergrass (late watergrass)","N: redroot pigweed, herbicidal effect grade (redroot pigweed [9])","L: windgrass, herbicidal effect grade (windgrass [10])",herbicidal effect on rice flat sedge (E) (rice flat sedge),"M: velvetleaf, herbicidal effect grade (velvetleaf [11])","Herbicidal effect by foliage application, G: green foxtail (green foxtail [12])","Herbicidal effect, C: oval-leafed pondweed (oval-leafed pondweed)","Herbicidal effect by foliage application, N: redroot pigweed (redroot pigweed [13])","P: chickweed, herbicidal effect grade (chickweed [14])","Herbicidal effect by foliage application, K: Italian ryegrass (Italian ryegrass [15])",other results
CCCC(=O)Oc1c(C)nn(C)c(=O)c1-c1c(-c2ccc(C)cc2)sc2cc(F)c(F)cc12 [5-004],0 (Herbicidal rate of 5% or less (almost no effect)),0 (Herbicidal rate of 5% or less (almost no effect)),0 (Herbicidal rate of 5% or less (almost no effect)),0 (Herbicidal rate of 5% or less (almost no effect)),0 (Herbicidal rate of 5% or less (almost no effect)),3 (Herbicidal rate of 40% or more and less than 70%),0 (Herbicidal rate of 5% or less (almost no effect)),3 (Herbicidal rate of 40% or more and less than 70%),4 (Herbicidal rate of 70% or more and less than 90%),0 (Herbicidal rate of 5% or less (almost no effect)),2 (Herbicidal rate of 20% or more and less than 40%),3 (Herbicidal rate of 40% or more and less than 70%),0 (Herbicidal rate of 5% or less (almost no effect)),0 (Herbicidal rate of 5% or less (almost no effect)),0 (Herbicidal rate of 5% or less (almost no effect)),3 (Herbicidal rate of 40% or more and less than 70%),0 (Herbicidal rate of 5% or less (almost no effect)),2 (Herbicidal rate of 20% or more and less than 40%),0 (Herbicidal rate of 5% or less (almost no effect)),1 (Herbicidal rate of 5% or more and less than 20%),"J: blackgrass, herbicidal effect grade (blackgrass [16]): 0 (Herbicidal rate of 5% or less (almost no effect)); Herbicidal effect by foliage application, P: chickweed (chickweed [17]): 3 (Herbicidal rate of 40% or more and less than 70%); H: barnyard grass, herbicidal effect grade (barnyard grass [18]): 0 (Herbicidal rate of 5% or less (almost no effect)); Herbicidal effect by foliage application, Q: false cleavers (false cleavers): 0 (Herbicidal rate of 5% or less (almost no effect)); F: southern crabgrass, herbicidal effect grade (southern crabgrass [19]): 0 (Herbicidal rate of 5% or less (almost no effect)); Herbicidal effect by foliage application, R: persian speedwell (persian speedwell [20]): 3 (Herbicidal rate of 40% or more and less than 70%); Herbicidal effect by foliage application, F: southern crabgrass (southern crabgrass [21]): 0 (Herbicidal rate of 5% or less (almost no effect)); Herbicidal effect by foliage application, L: windgrass (windgrass [22]): 1 (Herbicidal rate of 5% or more and less than 20%); R: persian speedwell, herbicidal effect grade (persian speedwell [23]): 0 (Herbicidal rate of 5% or less (almost no effect)); O: lambsquarters, herbicidal effect grade (lambsquarters [24]): 4 (Herbicidal rate of 70% or more and less than 90%); herbicidal effect on barnyard grass (H) (barnyard grass [25]): 3 (Herbicidal rate of 40% or more and less than 70%)"
CCCC(=O)Oc1c(C)nn(C)c(=O)c1-c1c(-c2ccc(COC)cc2)sc2cc(F)c(F)cc12 [5-010],3 (Herbicidal rate of 40% or more and less than 70%),0 (Herbicidal rate of 5% or less (almost no effect)),0 (Herbicidal rate of 5% or less (almost no effect)),0 (Herbicidal rate of 5% or less (almost no effect)),0 (Herbicidal rate of 5% or less (almost no effect)),0 (Herbicidal rate of 5% or less (almost no effect)),0 (Herbicidal rate of 5% or less (almost no effect)),2 (Herbicidal rate of 20% or more and less than 40%),3 (Herbicidal rate of 40% or more and less than 70%),1 (Herbicidal rate of 5% or more and less than 20%),0 (Herbicidal rate of 5% or less (almost no effect)),3 (Herbicidal rate of 40% or more and less than 70%),0 (Herbicidal rate of 5% or less (almost no effect)),4 (Herbicidal rate of 70% or more and less than 90%),2 (Herbicidal rate of 20% or more and less than 40%),4 (Herbicidal rate of 70% or more and less than 90%),0 (Herbicidal rate of 5% or less (almost no effect)),2 (Herbicidal rate of 20% or more and less than 40%),0 (Herbicidal rate of 5% or less (almost no effect)),1 (Herbicidal rate of 5% or more and less than 20%),"J: blackgrass, herbicidal effect grade (blackgrass [16]): 0 (Herbicidal rate of 5% or less (almost no effect)); Herbicidal effect by foliage application, P: chickweed (chickweed [17]): 3 (Herbicidal rate of 40% or more and less than 70%); H: barnyard grass, herbicidal effect grade (barnyard grass [18]): 2 (Herbicidal rate of 20% or more and less than 40%); Herbicidal effect by foliage application, Q: false cleavers (false cleavers): 5 (Herbicidal rate of 90% or more (almost completely withered)); F: southern crabgrass, herbicidal effect grade (southern crabgrass [19]): 0 (Herbicidal rate of 5% or less (almost no effect)); Herbicidal effect by foliage application, R: persian speedwell (persian speedwell [20]): 5 (Herbicidal rate of 90% or more (almost completely withered)); Herbicidal effect by foliage application, F: southern crabgrass (southern crabgrass [21]): 0 (Herbicidal rate of 5% or less (almost no effect)); Herbicidal effect by foliage application, L: windgrass (windgrass [22]): 0 (Herbicidal rate of 5% or less (almost no effect)); R: persian speedwell, herbicidal effect grade (persian speedwell [23]): 2 (Herbicidal rate of 20% or more and less than 40%); O: lambsquarters, herbicidal effect grade (lambsquarters [24]): 3 (Herbicidal rate of 40% or more and less than 70%); herbicidal effect on barnyard grass (H) (barnyard grass [25]): 3 (Herbicidal rate of 40% or more and less than 70%)"
